The text below walks through data of US20110098288A1, “SULFONAMIDES AS ZAP-70 INHIBITORS” (priority 2008, published 2011).

For experiment [1], the system named is Jurkat cells. The experiment is described as follows: Calcium release assay (Fluo-4 flow cytometry after anti-CD3 stimulation). The experiment is classed as cell-based. The following applies: Homo sapiens, Jurkat cell line J77, anti-CD3 activation, read-out: IC50 (Calcium ion release in cells). As to the method:
Compounds of the present invention were tested in a Calcium release assay as described below.
The development of fluorescent probes makes it possible to measure the concentration of intracellular free Calcium ions in single living cells. Cells are first loaded with a cell-permeable Ca^2+-sensitive dye, then the test compound is added. Finally, cells are activated through the T cell receptor with an anti-CD3 antibody shortly before data acquisition on the flow cytometer. The release of Ca^2+ is measured as a function of time after cell stimulation. This protocol describes the flow cytometry method using the Fluo-3 and Fluo-4 dyes (Minta et al., 1989, J. Biol. Chem. 264(14):8171-8178) to measure the intracellular Ca^2+ concentration in Jurkat cells (see also June et al., 1997, Measurement of intracellular calcium ions by flow cytometry. In: Current Protocols in Cytometry (1997) Unit 9.8.1-9.8.19, John Wiley & Sons, Inc.).
In general, cells should be handled in the shortest time possible to assure their stability. Therefore the preparation of all materials in advance is highly recommended as well as using any incubation or centrifugation time to prepare the next steps (e.g. preparing compound dilution or starting the flow cytometer).
1) Prepare a work plan indicating the number of samples to be analyzed including controls. 2) Cell harvest: Centrifuge 50 to 100 ml of a Jurkat cell culture for 5 minutes at 1100 rpm. Discard the supernatant, pool the resuspended cell pellets in a single 50 ml Falcon tube, and fill up to 50 ml with PBS—CaCl2 (without FCS). Centrifuge again sample again. 3) Resuspend cell pellet with PBS—CaCl2 (without FCS) to achieve a concentration not lower than 10×10^6 cells/ml. Prepare an adequate dilution to evaluate the cell concentration and count the cells. 4) Separate the volume of cells needed to be loaded (for example […] for 20 samples) in a 50 ml Falcon tube. Fill up with PBS—CaCl2 to 900 μl for 107 cells. 5) Prepare in the dark a 1:1 mix of FLUO-4 (1 mM)+Pluronic F-127 (20%). 5 μl of Fluo-4 are needed per 107 cells. 6) Prepare a 1/10 dilution of this mix with PBS—CaCl2 (in the dark; for example 5 μl Fluo-4+5 μl F-127 completed to 100 μl). 7) Add the dye solution to the cells. […] 8) Incubate the sample for 30 minutes in a cell incubator (37° C., 5% CO2). Mix from time to time. 9) During this time prepare the adequate test compound dilution in PBS—CaCl2 (with 10% FCS). The solution should be 10 times more concentrated than the desired final concentration. Vortex each dilution. Prepare also the antibody dilutions: anti-CD3 (1/200) and GAM (1/25). 10) Label FACS tubes and distribute in the corresponding tube 30 μl of the compound dilution or only buffer for the control tubes. 11) After 30 minutes of incubation wash the cells twice in PBS—CaCl2 (with 10% FCS). During the washing steps make sure that the flow cytometer is already “ON” in order to warm the laser. 12) Resuspend the cell pellet in PBS—CaCl2 (with 10% FCS) at a concentration of 1.5×10^6 cells/ml. 13) Distribute 300 μl of cell suspension into the FACS tubes and mix gently. The compound incubation is starting. Keep samples at room temperature in the dark. 14) Open the settings of the cytometer. It is advised to have a template ready which is used for all measurements. Settings of the machine should also be the same from one experiment to the other which permits to evaluate the reproducibility of the cell preparation. 15) In Setup modus control your cell preparation on the cytometer. Cells should fit in the pre-defined gates. 16) During the compound incubation time, check also that cells are responding to the anti-CD3 activation as expected. Set a timer at 8 sec. Add 6 μl of anti-CD3 dilution (0.2 μg/ml final) and mix gently. Add 1 μl of GAM dilution (0.75 μg/ml final) and mix gently. Incubate the samples in water bath at 37° C. while starting timer. After 8 seconds of incubation, acquire data at medium speed for 200 seconds. […]
(In flow cytometry, cells or beads pass a laser one at a time.)

The target of experiment [2] is T1, ZAP-70 (Homo sapiens, UniProt P43403).
T1 construct: endogenous in cells; host or cells: cell lysate
T1 sequence (P43403 1-619): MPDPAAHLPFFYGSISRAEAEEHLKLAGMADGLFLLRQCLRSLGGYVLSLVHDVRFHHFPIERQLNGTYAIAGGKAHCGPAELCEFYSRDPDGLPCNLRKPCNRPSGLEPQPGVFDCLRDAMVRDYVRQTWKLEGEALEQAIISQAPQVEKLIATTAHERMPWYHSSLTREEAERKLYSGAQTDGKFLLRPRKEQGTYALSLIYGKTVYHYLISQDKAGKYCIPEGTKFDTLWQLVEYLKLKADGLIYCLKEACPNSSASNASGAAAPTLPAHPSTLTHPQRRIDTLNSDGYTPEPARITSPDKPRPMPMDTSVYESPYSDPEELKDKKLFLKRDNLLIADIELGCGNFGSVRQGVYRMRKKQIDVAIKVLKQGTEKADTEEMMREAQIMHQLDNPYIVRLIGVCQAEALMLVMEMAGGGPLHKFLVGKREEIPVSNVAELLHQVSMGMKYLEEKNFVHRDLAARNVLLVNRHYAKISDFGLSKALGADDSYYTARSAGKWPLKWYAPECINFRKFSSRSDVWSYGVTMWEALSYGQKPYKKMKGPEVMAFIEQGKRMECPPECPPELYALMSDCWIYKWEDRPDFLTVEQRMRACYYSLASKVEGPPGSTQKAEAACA
The experiment in a line: ZAP-70 kinobeads assay. The conditions noted are these: competition with immobilized aminopyrido-pyrimidine ligand 24 in cell lysate; ZAP-70 detected by dot blot. The experiment is classed as binding. Put shortly:
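Competition binding format: compounds compete with a bead-immobilized aminopyrido-pyrimidine ligand for ZAP-70 in cell lysate. After bead separation and elution, bound ZAP-70 measured by antibody dot blot with infrared read-out.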

For `COc1cc(Nc2ncc(F)c(Nc3ccccc3NS(C)(=O)=O)n2)cc(OC)c1OC` [Example 1, N-(2-(5-fluoro-2-(3,4,5-trimethoxyphenylamino)pyrimidin-4-ylamino)phenyl)methanesulfonamide], the IC50 in experiment [1] and in experiment [2] was 100 to 1000 nM each time.

For `CS(=O)(=O)Nc1ccccc1Nc1nc(Nc2ccc(F)cc2)ncc1F` [Example 2, N-(2-(5-fluoro-2-(4-fluorophenylamino)pyrimidin-4-ylamino)phenyl)methanesulfonamide], the half-maximal inhibitory concentration (IC50) (usually the concentration that inhibits the measured activity by half) was in the range of 100 to 1000 nM in experiment [1] and 1000 to 10000 nM in experiment [2].

As to `Cc1cc(C)cc(Nc2ncc(F)c(Nc3ccccc3NS(C)(=O)=O)n2)c1` [Example 3, N-(2-(2-(3,5-dimethylphenylamino)-5-fluoropyrimidin-4-ylamino)phenyl)methanesulfonamide], the IC50 in experiment [1] and in experiment [2] was 100 to 1000 nM throughout.

For the compound `CS(=O)(=O)Nc1ccccc1Nc1nc(Nc2ccc3c(c2)OCCO3)ncc1F` [Example 4, N-(2-(2-(2,3-dihydrobenzo[b][1,4]dioxin-6-ylamino)-5-fluoropyrimidin-4-ylamino)phenyl)methanesulfonamide], the IC50 was 100 to 1000 nM in experiment [1] and 1000 to 10000 nM in experiment [2].

Regarding `CN(C)c1ccc(Nc2ncc(F)c(Nc3ccccc3NS(C)(=O)=O)n2)cc1` [Example 7, N-(2-(2-(4-(dimethylamino)phenylamino)-5-fluoropyrimidin-4-ylamino)phenyl)methanesulfonamide], the IC50 in experiment [1] and in experiment [2] was 100 to 1000 nM each time.

For the compound `CC(=O)c1cccc(Nc2ncc(F)c(Nc3ccccc3NS(C)(=O)=O)n2)c1` [Example 14, N-(2-(2-(3-acetylphenylamino)-5-fluoropyrimidin-4-ylamino)phenyl)methanesulfonamide], the IC50 in experiment [1] and in experiment [2] was 100 to 1000 nM throughout.

For `Cc1nc2cc(Nc3ncc(F)c(Nc4ccccc4NS(C)(=O)=O)n3)ccc2s1` [Example 18, N-(2-(5-fluoro-2-(2-methylbenzo[d]thiazol-5-ylamino)pyrimidin-4-ylamino)phenyl)methanesulfonamide], the half-maximal inhibitory concentration (IC50) in experiment [1] was 100 to 1000 nM; in experiment [2] it was 1000 to 10000 nM.

Turning to `CS(=O)(=O)Nc1ccccc1Nc1nc(Nc2cccc(-n3cncn3)c2)ncc1F` [Example 21, N-(2-(2-(3-(1H-1,2,4-triazol-1-yl)phenylamino)-5-fluoropyrimidin-4-ylamino)phenyl)methanesulfonamide], the concentration for half-maximal inhibition (IC50) in experiment [1] is 100 to 1000 nM; in experiment [2], 1000 to 10000 nM.

`CN1C(=O)COc2cc(Nc3ncc(F)c(Nc4ccccc4NS(C)(=O)=O)n3)ccc21` [Example 25, N-(2-(5-fluoro-2-(4-methyl-3-oxo-3,4-dihydro-2H-benzo[b][1,4]oxazin-7-ylamino)pyrimidin-4-ylamino)phenyl)methanesulfonamide]: the concentration for half-maximal inhibition (IC50) in experiment [1] and in experiment [2] was 100 to 1000 nM each time.

In the case of `CS(=O)(=O)Nc1ccccc1Nc1nc(Nc2ccc3cn[nH]c3c2)ncc1F` [Example 32, N-(2-(2-(1H-indazol-6-ylamino)-5-fluoropyrimidin-4-ylamino)phenyl)methanesulfonamide], the IC50 in experiment [1] and in experiment [2] was 100 to 1000 nM each time.

On to `COc1ccc(Nc2ncc(F)c(Nc3ccccc3NS(C)(=O)=O)n2)cc1` [Example 35, N-(2-(5-fluoro-2-(4-methoxyphenylamino)pyrimidin-4-ylamino)phenyl)methanesulfonamide], for which the IC50 in experiment [1] and in experiment [2] was 100 to 1000 nM throughout.

In the case of `COc1ccc(Nc2ncc(F)c(Nc3ccccc3NS(C)(=O)=O)n2)cc1OC` [Example 36, N-(2-(2-(3,4-dimethoxyphenylamino)-5-fluoropyrimidin-4-ylamino)phenyl)methanesulfonamide], the 50% inhibitory concentration (IC50) in experiment [1] and in experiment [2] was 100 to 1000 nM throughout.

With `COc1cc(Nc2ncc(F)c(Nc3ccccc3NS(C)(=O)=O)n2)cc(OC)c1` [Example 37, N-(2-(2-(3,5-dimethoxyphenylamino)-5-fluoropyrimidin-4-ylamino)phenyl)methanesulfonamide], the half-maximal inhibitory concentration (IC50) in experiment [1] and in experiment [2] was 100 to 1000 nM throughout.

Turning to `COc1cccc(Nc2ncc(F)c(Nc3ccccc3NS(C)(=O)=O)n2)c1` [Example 38, N-(2-(5-fluoro-2-(3-methoxyphenylamino)pyrimidin-4-ylamino)phenyl)methanesulfonamide], the figures for the IC50 in experiment [1] and in experiment [2] were 100 to 1000 nM and 1000 to 10000 nM, respectively.

As for `COc1cc(Nc2ncc(F)c(Nc3ccc(NS(=O)(=O)c4ccccc4)cc3)n2)cc(OC)c1OC` [Example 44, N-(4-(5-fluoro-2-(3,4,5-trimethoxyphenylamino)pyrimidin-4-ylamino)phenyl)benzenesulfonamide], the IC50 in experiment [1] was in the range of 100 to 1000 nM.

Turning to `COc1cc(Nc2ncc(F)c(Nc3ccccc3NS(=O)(=O)c3ccsc3)n2)cc(OC)c1OC` [Example 49, N-(2-(5-fluoro-2-(3,4,5-trimethoxyphenylamino)pyrimidin-4-ylamino)phenyl)thiopehene-3-sulfonamide], the figures for the IC50 in experiment [1] and in experiment [2] were 100 to 1000 nM and 1000 to 10000 nM, respectively.

As to `COc1cc(Nc2ncc(F)c(Nc3ccccc3NS(=O)(=O)c3cccs3)n2)cc(OC)c1OC` [Example 50, N-(2-(5-fluoro-2-(3,4,5-trimethoxyphenylamino)pyrimidin-4-ylamino)phenyl)thiopehene-2-sulfonamide], the half-maximal inhibitory concentration (IC50) in experiment [1] lay in the range of 100 to 1000 nM; in experiment [2], 1000 to 10000 nM.

For `COc1cc(Nc2ncc(F)c(Nc3cccc(NS(=O)(=O)c4cccnc4)c3)n2)cc(OC)c1OC` [Example 58, N-(3-(5-fluoro-2-(3,4,5-trimethoxyphenylamino)pyrimidin-4-ylamino)phenyl)pyridine-3-sulfonamide], the IC50 in experiment [1] is 100 to 1000 nM.

`CS(=O)(=O)Nc1ccccc1Nc1nc(Nc2ccc(-n3cnnn3)cc2)ncc1Cl` [Example 214, N-(2-(2-(4-(1H-tetrazol-1-yl)phenylamino)-5-chloropyrimidin-4-ylamino)phenyl)methanesulfonamide] displayed a concentration for half-maximal inhibition (IC50) in experiment [2] of 100 to 1000 nM.

In the case of `CS(=O)(=O)Nc1ccccc1Nc1nc(Nc2cccc(-n3cnnn3)c2)ncc1Br` [Example 216, N-(2-(2-(3-(1H-tetrazol-1-yl)phenylamino)-5-bromopyrimidin-4-ylamino)phenyl)methanesulfonamide], in experiment [2], the IC50 was in the range of 100 to 1000 nM.
